Values quoted from earlier work in patent US20010006974A1, “COMBINATION THERAPY FOR LYMPHOPROLIFERATIVE DISEASES” (priority 1999, published 2001).

Columns and labels:
refractory lymphomas = settings: monotherapy; 5 mg/m^2 for 3 consecutive day every 3 weeks
[1] = tested on: refractory/relapsed B-CLL; settings: refractory/relapsed B-CLL patients
cAMP = settings: correlated with theophylline-induced apoptosis
bcl-2 = settings: correlated with theophylline-induced apoptosis

Compound | response rate (refractory lymphomas) | response rate [1] | intracellular level of cAMP (cAMP) | bcl-2 regulation (bcl-2) | activity as a single agent (alkylator-refractory CLL)
OC[C@H]1O[C@@H](n2cnc3c2NC=NC[C@H]3O)C[C@@H]1O [pentostatin, 2′-deoxycoformycin] | 32% | 30% | – | – | –
Cn1c(=O)c2[nH]cnc2n(C)c1=O [theophylline] | – | – | increased | down-regulation | no activity
